The text below walks through data of paper PMC9570088, “Phytochemicals with Chemopreventive Activity Obtained from the Thai Medicinal Plant Mammea siamensis (Miq.) T. Anders.: Isolation and Structure Determination of New Prenylcoumarins with Inhibitory Activity against Aromatase” (International Journal of Molecular Sciences, 2022).

Experiment [1] concerns the target T1, human recombinant aromatase (Homo sapiens, UniProt P11511).
T1 construct: purchased BD Biosciences (Heidelberg, Germany)
T1 sequence (P11511 1-503): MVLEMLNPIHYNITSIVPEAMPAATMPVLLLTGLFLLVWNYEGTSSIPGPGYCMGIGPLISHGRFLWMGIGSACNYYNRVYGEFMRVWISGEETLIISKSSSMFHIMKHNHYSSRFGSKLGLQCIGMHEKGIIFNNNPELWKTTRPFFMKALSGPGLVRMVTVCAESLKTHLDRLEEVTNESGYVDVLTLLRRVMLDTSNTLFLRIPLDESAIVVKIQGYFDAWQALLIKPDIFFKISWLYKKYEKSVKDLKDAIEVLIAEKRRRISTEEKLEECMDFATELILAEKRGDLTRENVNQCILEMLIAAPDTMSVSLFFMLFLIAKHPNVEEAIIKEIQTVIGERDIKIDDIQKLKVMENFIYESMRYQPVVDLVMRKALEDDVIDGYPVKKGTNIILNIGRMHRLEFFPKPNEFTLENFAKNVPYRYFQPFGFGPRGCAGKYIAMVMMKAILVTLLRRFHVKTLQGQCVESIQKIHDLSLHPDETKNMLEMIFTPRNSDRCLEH
Briefly: Inhibitory effects against human recombinant aromatase (DBF fluorescence assay). In kind it is biochemical. To be noted: for IC50: substrate DBF, mean, N = 3. The method, then: Dibenzylfluorescein (DBF) and human CYP19 + P450 reductase SUPERSOMES (human recombinant aromatase) were purchased from BD Biosciences (Heidelberg, Germany) and testosterone from Tokyo Chemical Industry Co., Ltd. (Tokyo, Japan). The other chemicals used in this study were purchased from Wako Pure Chemical Industries, Co., Ltd. (Osaka, Japan).
The experiments were performed according to a previously described method. Briefly, a test sample was dissolved in dimethyl sulfoxide (DMSO), and the solution was diluted with potassium phosphate buffer (50 mM, pH 7.4) containing MgCl2 (0.5 mM) to obtain the test sample solution (concentration of DMSO: 2%). An enzyme/substrate solution in the buffer (20 µL, 1.6 µM DBF, 8 nM human recombinant aromatase) and the test sample solution (20 µL) were mixed in a 96-well half-area black microplate (Greiner Bio-One, Frickenhausen, Germany) at 37 °C for 10 min. The enzymatic reaction was initiated by adding NADPH solution (40 µL, 500 µM) at 37 °C for 30 min. After 30 min of incubation, NaOH (30 µL, 2 mM) was added, and the reaction mixture was incubated at 37 °C for 2 h to induce fluorescent signals (final DMSO concentration, 0.5%; aromatase, 2 nM; and NADPH, 250 µM). Fluorescence was measured using a fluorescence microplate reader (SH-9000, CORONA […] Co., Ltd., Ibaraki, Japan) at an excitation wavelength of 435 nm and emission wavelength of 535 nm. Experiments were performed in triplicate, and the IC50 values were determined graphically.

Experiment [2] has as its target T1, human recombinant aromatase. Description: Kinetic analysis of inhibitory activity against human recombinant aromatase using Lineweaver-Burk plots (testosterone substrate, estradiol EIA). In kind it is biochemical. Conditions: for mode of inhibition of aromatase: Lineweaver–Burk plots; for Ki: testosterone 0.4–4 µM as substrate, secondary plot of Lineweaver–Burk, N = 3. The source says: In the assay system, we fixed the enzyme concentration, changed the substrate concentration, and obtained the kinetic parameters of the enzyme-catalyzed reaction using Lineweaver–Burk double reciprocal plot 1/[V] vs. 1/[S]. The inhibition constant Ki indicates the potency of an inhibitor and equals the concentration required to produce half-maximal inhibition. The Ki value was obtained from the intersection of the secondary plot with the x-axis (apparent Km/Vmax vs. inhibitor).
Experiments were performed using a previously described protocol, modified by using various concentrations of testosterone (0.4–4 µM) as substrates instead of DBF and the plate was heated at 37 °C for 15 min. After the reaction, the enzyme was inactivated by heating in a boiling water bath for 2 min. An estradiol EIA kit (Oxford Biomedical Research, Inc., Oxford, MI, USA) was used to develop an estradiol standard curve to determine the concentration of estradiol produced and to correlate the concentration of estradiol with the reaction velocity. The mode of inhibition was analyzed using the Lineweaver–Burk plot of the inverse of the reaction velocity of estradiol plotted on the vertical axis and the inverse of the final concentration of the substrate on the horizontal axis, with and without the test substance (Figure S27).

The target is the same in experiment [3]. Also on record: method as in PMID 27373643. To be noted: value marked as from earlier report; read-out: IC50 against human recombinant aromatase; cited from earlier work.

Molecules are shown by their SMILES. Entries after “also recorded” stand apart in the source; their conditions may differ. Where two headings read alike, the source gives them in different places.

As usually defined, the IC50 is the concentration that gives 50% inhibition. The term Ki denotes a dissociation constant, usually derived from enzyme kinetics or from competition with a known ligand. `CCCC(=O)c1c(O)c2c(c3c(CCC)cc(=O)oc13)OC(C)(C)C=C2` [compound 1, mammeasin K]: in experiment [1], the IC50 is 7.6 µM. In experiment [2], the “mode of inhibition of aromatase” value is reported as “competitively inhibit; also recorded: competitive inhibition; also recorded: competitive inhibitors” and the Ki came to 3.4 µM.
In the case of `CCCC(=O)c1c(O)c2c(c3c(-c4ccccc4)cc(=O)oc13)OC(C)(C)C=C2` [compound 2, mammeasin L], the IC50 in experiment [1] was 20.7 µM.
A word on the inhibition: it is the relative decrease from the control value, in per cent. Turning to `CCCC(=O)c1c2c(c3oc(=O)cc(-c4ccccc4)c3c1O)C(OC)C(C(C)(C)O)O2` (centres unmarked) [compound 3, mammeasin M], the inhibition at 100 µM in experiment [1] (100 µM, value in parentheses) came out at 43.4%. Moreover, the IC50 in experiment [1] is greater than 100 µM.
In the case of `CCCC(=O)c1c(O)c(C/C=C(\C)CCC=C(C)C)c(O)c2c([C@H](CC)OC(C)=O)cc(=O)oc12` [compound 6, Mammeasin A], the Ki in experiment [2] came out at 5.1 µM. Moreover, the IC50 in experiment [3] was 8.7 µM.
For the compound `CC[C@H](OC(C)=O)c1cc(=O)oc2c(C(=O)CC(C)C)c(O)c(C/C=C(\C)CCC=C(C)C)c(O)c12` [compound 7, Mammeasin B], in experiment [2], the “mode of inhibition of aromatase” value is given as “competitive inhibition; also recorded: competitive inhibitors” and the Ki came to 1.3 µM. Also, the IC50 in experiment [3] is 4.1 µM.
With `CC(C)=CCC/C(C)=C/Cc1c(O)c(C(=O)C(C)C)c2oc(=O)cc3c2c1OC(C)C3` (centres unmarked) [compound 8, Mammeasin C], in experiment [2], the “mode of inhibition of aromatase” value was “competitive inhibition; also recorded: competitive inhibitors” and the Ki was 2.8 µM. Further, the IC50 in experiment [3] was 2.7 µM.
Turning to `CCCC(=O)c1c(O)c(C/C=C(\C)CCC=C(C)C)c2c3c(cc(=O)oc13)CC(C)O2` (centres unmarked) [compound 9, Mammeasin D], the Ki in experiment [2] stood at 4.3 µM. Also, in experiment [3], the IC50 is 3.6 µM.
Take `CCCC(=O)c1c(O)c2c(c3c(CCC)cc(=O)oc13)OC(C)(CCC=C(C)C)C=C2` (centres unmarked) [compound 12, Mammeasin G]: the IC50 in experiment [1] was determined as 21.3 µM.
Still for that read-out and setting: the result for `CCCc1cc(=O)oc2c(C(=O)C(C)CC)c(O)c3c(c12)OC(C)(CCC=C(C)C)C=C3` (centres unmarked) [compound 13, Mammeasin H] reads 17.9 µM; that for `C/C=C/c1cc(=O)oc2c(C(=O)CCC)c(O)c3c(c12)OC(C)(CCC=C(C)C)C=C3` (centres unmarked) [compound 14, Mammeasin I], 21.3 µM.
As for `CCCc1cc(=O)oc2c3c(c(C(=O)C(C)CC)c(O)c12)OC(C)(CCC=C(C)C)C=C3` (centres unmarked) [compound 15, Mammeasin J], in experiment [1], the IC50 was 23.4 µM.
For `CCC(C)C(=O)c1c(O)c(C/C=C(\C)CCC=C(C)C)c(O)c2c([C@H](CC)OC(C)=O)cc(=O)oc12` (some centres unmarked) [compound 16, Surangin B], in experiment [2], the “mode of inhibition of aromatase” value is “competitive inhibition; also recorded: competitive inhibitors” and the inhibition constant Ki is 1.3 µM. Moreover, the IC50 in experiment [3] was 9.8 µM.
For `CCC(C)C(=O)c1c(O)c(C/C=C(\C)CCC=C(C)C)c(O)c2c([C@@H](O)CC)cc(=O)oc12` (some centres unmarked) [compound 17, Surangin C], in experiment [2], the “mode of inhibition of aromatase” value is given as “competitive inhibition; also recorded: competitive inhibitors” and the inhibitory constant (Ki) amounted to 2.6 µM. Also, the IC50 in experiment [3] was 8.8 µM.
In the case of `CC[C@H](O)c1cc(=O)oc2c(C(=O)CC(C)C)c(O)c(C/C=C(\C)CCC=C(C)C)c(O)c12` [compound 18, Surangin D], the IC50 in experiment [3] is 9.8 µM.
Regarding `CCCC(=O)c1c(O)c(C/C=C(\C)CCC=C(C)C)c(O)c2c([C@@H](O)CC)cc(=O)oc12` [compound 19, Kayeassamin A], the half-inhibitory concentration (IC50) in experiment [1] is 10 µM.
With `CCCC(=O)c1c(O)c(CC=C(C)C)c2oc(=O)cc([C@@H](O)CC)c2c1O` [compound 20, Kayaessamin E], the IC50 in experiment [3] was 14.9 µM.
Regarding `CCC(C)C(=O)c1c(O)c(CC=C(C)C)c2oc(=O)cc([C@@H](O)CC)c2c1O` (some centres unmarked) [compound 21, Kayaessamin F], the IC50 in experiment [3] is 19.7 µM.
As for `CC[C@H](O)c1cc(=O)oc2c(CC=C(C)C)c(O)c(C(=O)CC(C)C)c(O)c12` [compound 22, Kayaessamin G], the IC50 in experiment [3] was 27.8 µM.
Regarding `CC(C)=CCc1c(O)c(C(=O)CC(C)C)c(O)c2c(-c3ccccc3)cc(=O)oc12` [compound 24, Mammea A/AA], the Ki in experiment [2] is 13.7 µM. In addition, the IC50 in experiment [3] is 6.9 µM.
Turning to `CCC(C)C(=O)c1c(O)c(CC=C(C)C)c2oc(=O)cc(-c3ccccc3)c2c1O` (centres unmarked) [compound 25, Mammea A/AB], in experiment [2], the Ki came out at 8.1 µM. Further, the IC50 in experiment [3] is 8.6 µM.
On to `CCCC(=O)c1c(O)c(CC=C(C)C)c2oc(=O)cc(-c3ccccc3)c2c1O` [compound 26, Mammea A/AC], for which the IC50 in experiment [3] is 13.7 µM.
Consider `CC(C)=CCc1c(O)c(C(=O)C(C)C)c(O)c2c(-c3ccccc3)cc(=O)oc12` [compound 27, Mammea A/AD], for which the IC50 in experiment [3] was 11.3 µM.
On to `CC(C)CC(=O)c1c2c(c3oc(=O)cc(-c4ccccc4)c3c1O)C=CC(C)(C)O2` [compound 28, Mammea A/AA cyclo D], for which, in experiment [2], the “mode of inhibition of aromatase” value is listed as “competitive inhibition; also recorded: competitive inhibitors” and the Ki is 1.2 µM. In experiment [3], the IC50 is 7.2 µM.
Consider `CCC(C)C(=O)c1c2c(c3oc(=O)cc(-c4ccccc4)c3c1O)C=CC(C)(C)O2` (centres unmarked) [compound 29, Mammea A/AB cyclo D], for which, in experiment [3], the IC50 was 24.1 µM.
As to `CCCC(=O)c1c2c(c3oc(=O)cc(-c4ccccc4)c3c1O)C=CC(C)(C)O2` [compound 30, Mammea A/AC cyclo D], the IC50 in experiment [3] is 35 µM.
As to `CCCc1cc(=O)oc2c3c(c(C(=O)C(C)CC)c(O)c12)OC(C)(C)C=C3` (centres unmarked) [compound 31, Mammea B/AB cyclo D], in experiment [2], the “mode of inhibition of aromatase” value is “competitive inhibitory activity; also recorded: competitive inhibition; also recorded: competitive inhibitors” and the Ki stood at 0.84 µM. Also, the IC50 in experiment [3] is 3.1 µM.
For `CCCC(=O)c1c2c(c3oc(=O)cc(CCC)c3c1O)C=CC(C)(C)O2` [compound 32, Mammea B/AC cyclo D], in experiment [3], the concentration for half-maximal inhibition (IC50) is 24.6 µM.
In the case of `CCCC(=O)c1c(O)c2c(c3c(C(CC)OC(C)=O)cc(=O)oc13)OC(C)(C)C=C2` (centres unmarked) [compound 33, Mammea E/BC cyclo D], in experiment [2], the “mode of inhibition of aromatase” value was “competitive inhibition; also recorded: competitive inhibitors” and the Ki worked out at 2.3 µM. Further, the IC50 in experiment [3] is 11.5 µM.
With `CCC(OC(C)=O)c1cc(=O)oc2c(C(=O)C(C)C)c(O)c3c(c12)OC(C)(C)C=C3` (centres unmarked) [compound 34, Mammea E/BD cyclo D], the IC50 in experiment [1] was 21.1 µM.
`CCCC(=O)c1c(O)c2c(c3c([C@@H](O)CC)cc(=O)oc13)OC(C)(C)C=C2` [compound 35, Deacetylammea E/BC cyclo D]: the IC50 in experiment [3] was 16.6 µM.
For `CC[C@H](OC(C)=O)c1cc(=O)oc2c(C(=O)CC(C)C)c(O)c(CC=C(C)C)c(O)c12` [compound 36, Mammea E/BA], the IC50 in experiment [3] was 16.6 µM.
Turning to `CCC(C)C(=O)c1c(O)c(CC=C(C)C)c(O)c2c(C(CC)OC(C)=O)cc(=O)oc12` (centres unmarked) [compound 37, Mammea E/BB], the IC50 in experiment [3] is 18.6 µM.
Take `CCCC(=O)c1c2c(c3oc(=O)cc(-c4ccccc4)c3c1O)CC(C(C)(C)O)O2` (centres unmarked) [compound 40, Mammea A/AC cyclo F]: the IC50 in experiment [1] worked out at 19.9 µM.
Same read-out and setting: the result for `CC[C@H](O)c1cc(=O)oc2c3c(c(C(=O)CC(C)C)c(O)c12)OC(C)(C)C=C3` [compound 41, Deacetylammea E/AA cyclo D] reads 19.3 µM; that for `CCC(C)C(=O)c1c(O)c2c(c3c([C@@H](O)CC)cc(=O)oc13)OC(C)(C)C=C2` (some centres unmarked) [compound 42, Deacetylammea E/BB cyclo D], 12.1 µM.
